# Tests used:
# human oocytes = experiment: Live imaging of spindle assembly and chromosome segregation in human oocytes microinjected with KIFC1/HSET (mClover3-HSET); type: cell-based
# Experimental: As shown in various Figures herein and specifically referred in Example 2, the bipolar meiotic spindle is assessed or detected by fluorescence microscopy or polarized light microscopy. In practice, the oocyte is not is typically not assessed by fluorescence microscopy, when the oocyte is used for in vitro fertilization at a later stage as this would require sacrificing the oocytes for analysis. The change in probability represents a characteristic of human oocytes when KIFC1/HSET is introduced into the human oocyte. […] Similarly, it is also expected that KIFC1/HSET stabilizes the mitotic spindle in human zygotes. The skilled person is aware of how to determine the duration of spindle pole instability and is provided with further guidance in Example 2 herein. Briefly, the duration of spindle pole instability refers to the duration of excessive spindle pole remodeling after early spindle bipolarization. In the case of human oocytes, the remodeling is largely the widening or fragmentation of spindle poles, which results in apolar or multipolar spindle. The start and end points are determined from the videos based on the first and last time points in which the spindle was not bipolar.
# Anaphase onset refers to the time point before chromosome separation was first observed, as defined in the inventors previous study (2). […] Thus, there was a difference of 30.6% relative to the starting percentage of 44%. In other words, the human oocytes in FIG. 8D into which KIFC1/HSET has been introduced have a 1.7 fold (75%/44%) higher probability of aligned chromosomes at anaphase onset in comparison to an oocyte without introduced KIFC1/HSET.
# In general, lagging chromosomes during anaphase are known in the art and are a consequence of chromosomes or chromatids not properly separating from each other. […] Lagging chromosomes are therefore a common cause of aneuploidy. […] Specifically, 33.3% of oocytes without introduced KIFC1/HSET had no lagging: chromosomes, while 62.5% of oocytes with introduced KIFC1/HSET had no lagging chromosomes. Thus, there was a difference of 29.5% based on the starting percentage of 33%. In other words, the human oocytes in FIG. 8E into which KIFC1/HSET has been introduced have a 1.9 fold (62.5%/33.3%) higher probability of aligned chromosomes at anaphase onset in comparison to an oocyte without introduced KIFC1/HSET.
# To confirm that the lack of KIFC1/HSET is a major contributor to spindle instability in human oocytes, the inventors introduced KIFC1/HSET into human oocytes in FIG. 8. To visualize the dynamics of microtubules and chromosomes using live cell imaging, human oocytes were stained with 5′-SiR-tubulin and SPY555-DNA, respectively. […] The inventors also quantified the frequency of misaligned chromosomes at anaphase onset (FIG. 8D) and lagging chromosomes (FIG. 8E) in human oocytes non-injected and injected with KIFC1/HSET. […] Together, the inventors infer that the introduction of KIFC1/HSET stabilized the meiotic spindle and reduced the risk of aneuploidy in human oocytes.
# The use of unfertilized human oocytes in this study was approved by the UK's National Research Ethics Service under the REC reference 11/EE/0346 (IRAS Project ID 84952) and the Ärztekammer Niedersachsen (Ethics Committee of Lower Saxony) under the reference 15/2016. Oocytes were collected from patients who underwent ovarian stimulation for intracytoplasmic sperm injection (ICSI) as part of their assisted reproduction treatment at the Bourn Hall Clinic or Kinderwunschzentrum Göttingen or Fertility Center Berlin. Only oocytes that were immature at the time of ICSI and thus unsuitable for the procedure were used in this study. All patients gave informed consent for their surplus oocyte(s) to be used in this study. Oocytes were cultured as previously described (1). Briefly, within 3-5 h after retrieval from ovaries, oocytes were transferred into G-MOPS (Vitrolife) supplemented with 10% FBS under paraffin oil at 37° C. […]
# [1] = tested on: human tripronuclear (3PN) zygotes; experiment: Live imaging of spindle assembly and chromosome segregation in human 3PN zygotes injected with KIFC1; type: cell-based; details: for multipolar / bipolar spindle assembly: human 3PN zygotes, FIG. 9, B to D
# Description: Spindles in human fertilized eggs (zygotes) have also been reported to often be multipolar (6, 7, 122). […] The inventors thus tested if the introduction of exogenous KIFC1 increased the fidelity of spindle assembly and chromosome segregation in human zygotes, by using human tripronuclear (3PN) zygotes. Similar to the zygotes in (6, 7, 122), these zygotes frequently assembled multipolar spindles. […] Furthermore, introduction of mClover3-KIFC1 protein increased the frequency of zygotes with aligned chromosomes at anaphase onset from 20% to 57% (FIG. 9E), and the frequency of zygotes without lagging chromosomes during anaphase from 40% to 71% (FIG. 9F). Thus, introducing exogenous KIFC1 increased the efficiency of bipolar spindle assembly and reduced the risk of aneuploidy in human zygotes.
# The use of human 3PN zygotes in this study was approved by the Ärztekammer Niedersachsen under the reference Bo/46/2020. Zygotes were collected from patients who underwent assisted reproduction treatment at Kinderwunschzentrum Göttingen and Fertility Center Berlin. All patients gave informed consent for their 3PN zygotes to be used in this study. For zygotes collected at Kinderwunschzentrum Göttingen, zygotes were cultured in G-1 PLUS medium (Vitrolife) under paraffin oil at 37° C. and 5% CO2. For zygotes collected at Fertility Center Berlin, zygotes were vitrified with Cryolock (FUJIFILM Irvine Scientific) using Vit Kit-Freeze (FUJIFILM Irvine Scientific). To maximize the survival and developmental rate of vitrified-thawed zygotes, zygotes were thawed in 1 ml of prewarmed G-MOPS PLUS (Vitrolife) containing 1 M D-(+)-trehalose (Sigma-Aldrich) at 37° C. for 1 min. Zygotes were then transferred to 300 μl of G-MOPS PLUS containing 0.5 M D-(+)-trehalose at room temperature for 3 min, 300 μl of G-MOPS PLUS containing 0.25 M D-(+)-trehalose at room temperature for 5 min, and 300 μl of G-MOPS PLUS at room temperature for 2 min. Recovered zygotes were cultured in G1-PLUS supplemented with 10% FBS under paraffin oil at 37° C. and 5% CO2. Staining and microinjection of human zygotes were performed as described above for human oocytes.
substance,measurement,setting,value
"KIFC1/HSET: Recombinant mClover3-tagged human kinesin-14 KIFC1/HSET protein (SEQ ID NO: 1), expressed in 293 cells, microinjected into human oocytes and zygotes","fold higher probability of aligned chromosomes at anaphase onset vs oocyte without introduced KIFC1/HSET (FIG. 8E, lagging chromosomes)","human oocytes; 62.5%/33.3%, FIG. 8E",1.9 fold
same,fold higher probability of aligned chromosomes at anaphase onset vs oocyte without introduced KIFC1/HSET,"human oocytes; 75%/44%, FIG. 8D",1.7 fold
same,difference in oocytes with no lagging chromosomes,human oocytes; based on the starting percentage of 33%,29.5%
same,time of early spindle bipolarization after onset of microtubule nucleation,"human oocytes; injected human oocytes, non-injected 2.4 h, p=0.7197, FIG. 8B",2.65 h
same,duration of spindle pole instability,"human oocytes; injected human oocytes, non-injected 10.3 h, p<0.0001, FIG. 8C",3.4 h
same,proportion of human oocytes with no lagging chromosome,"human oocytes; oocytes with introduced KIFC1/HSET, without 33.3%, FIG. 8E",62.5%
same,proportion of human oocytes with aligned chromosomes at anaphase onset,"human oocytes; oocytes with introduced KIFC1/HSET, without 44.4%, FIG. 8D",75%
same,difference in oocytes with aligned chromosomes at anaphase onset,human oocytes; relative to the starting percentage of 44%,30.6%
same,frequency of zygotes with aligned chromosomes at anaphase onset,"[1]; KIFC1-injected human 3PN zygotes, non-injected 20%, FIG. 9E",57%
same,frequency of zygotes without lagging chromosomes during anaphase,"[1]; KIFC1-injected human 3PN zygotes, non-injected 40%, FIG. 9F",71%
same,multipolar / bipolar spindle assembly,[1],significantly reduces multipolar spindle assembly and/or promoted bipolar spindle assembly
same,multipolar / bipolar spindle assembly,[1]; listed as mClover3-KIFC1,significantly reduced multipolar spindle assembly and promoted bipolar spindle assembly
